Where no end group is shown, it is not given here.
Tests used:
[1] = target: T1, C-TgCEN1 (C-terminal domain, 95–169 aa) (Toxoplasma gondii, UniProt A0A125YHX7); assay: ITC titration of TgSFI1 peptides into C-TgCEN1; type: binding; conditions: SEM; for Kd / n (stoichiometry of binding) / ΔH: 25 °C; for Kd / n (stoichiometry of binding): 50 mM Tris-HCl; for TΔS: T 298 K
T1 construct: C-terminal (C-TgCEN1, 95–169 aa); made in house
Procedure: (§1) The recombinant TgCEN1 (lacking the first 21 residues) and its N-terminal (N-TgCEN1, 22–94 aa) and C-terminal (C-TgCEN1, 95–169 aa) domains were purified as previously described. The TgSFI1 peptides were synthesized by GenScript U.S.A. Inc. (Piscataway, NJ, USA). The concentration of each peptide was determined using their predicted molar extinction coefficient at 280 nm.
(§2) Isothermal titration calorimetry (ITC) experiments were performed on a MicroCal PEAQ-ITC instrument (Malvern Ltd., Malvern, UK) at 25 °C. Protein samples and peptides were solubilized in the same buffer containing 50 mM Tris–HCl, 150 mM KCl pH 7.5 and 5 mM CaCl2 or 5 mM EGTA. All the samples were filtered and degassed before use, and the pH was carefully determined to exclude any possible pH-related effect on ITC experiments.
(§3) A typical ITC experiment was performed by titrating 200 μL of a 30–50 μM protein solution with a 1 or 1.5 μL injection of 0.3–0.5 mM peptide (total injections 39 or 26, respectively) with an initial delay of 120 s and keeping a time gap of 120 s between injections. A reference injection of peptide into buffer without centrin was performed and subtracted from each experiment. The resulting curves were fitted to calculate apparent dissociation constants Kd, enthalpy changes (ΔH), and the apparent entropy change (ΔS) using the software MicroCal ITC Origin 7 Analysis Software (MicroCal, Malvern Ltd., Malvern, UK). All measurements were repeated in triplicate using at least two different protein preparations and the error was calculated as the mean standard error of the three measurements.

[2] = target: T2, TgCEN1 (recombinant, lacking the first 21 residues) (Toxoplasma gondii, UniProt A0A125YHX7); assay: ITC titration of TgSFI1 peptides into TgCEN1; type: binding; conditions: for TΔS: T 298 K
T2 construct: TgCEN1 (lacking the first 21 residues) and its N-terminal (N-TgCEN1, 22–94 aa) and C-terminal (C-TgCEN1, 95–169 aa) domains; made in house
Procedure: as §1, §2, §3

[3] = target: T3, N-TgCEN1 (N-terminal domain, 22–94 aa) (Toxoplasma gondii, UniProt A0A125YHX7); assay: ITC titration of TgSFI1 peptides into N-TgCEN1; type: binding; conditions: SEM
T3 construct: N-terminal (N-TgCEN1, 22–94 aa); made in house
Procedure: as §1, §2, §3

[4] = target: TgSFI1 R16 peptide R16 (Toxoplasma gondii) (UniProt S8F258); assay: ITC
[5] = 150 mM KCl pH 7.5, 5 mM CaCl2, mean ± SE of triplicate
[6] = 150 mM KCl pH 7.5, 5 mM EGTA, mean ± SE of triplicate, dash = no binding observed
[7] = 25 °C, 50 mM Tris-HCl, 150 mM KCl pH 7.5, 5 mM CaCl2, single binding site, mean ± SE of triplicate, SEM
[8] = 25 °C, 50 mM Tris-HCl, 150 mM KCl pH 7.5, 5 mM EGTA, mean ± SE of triplicate, dash = no binding observed, SEM
[9] = 25 °C, 50 mM Tris-HCl, 150 mM KCl pH 7.5, 5 mM CaCl2, first site (n1) of two-step binding, mean ± SE of triplicate, SEM
[10] = 25 °C, 50 mM Tris-HCl, 150 mM KCl pH 7.5, 5 mM CaCl2, second site (n2) of two-step binding, mean ± SE of triplicate, SEM
[11] = Ca2+-bound TgCEN1, single exothermic event, order of magnitude in text
[12] = pH 7.5, 5 mM CaCl2, mean ± SE of triplicate
[13] = pH 7.5, 5 mM EGTA, mean ± SE of triplicate

T3 sequence (A0A125YHX7 22-94): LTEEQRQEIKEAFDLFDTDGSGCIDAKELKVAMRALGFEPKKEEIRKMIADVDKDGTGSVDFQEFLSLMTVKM
T1 sequence (A0A125YHX7 95-169): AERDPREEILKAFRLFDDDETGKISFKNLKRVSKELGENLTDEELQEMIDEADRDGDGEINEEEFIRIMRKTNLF
T2 sequence (A0A125YHX7 22-169): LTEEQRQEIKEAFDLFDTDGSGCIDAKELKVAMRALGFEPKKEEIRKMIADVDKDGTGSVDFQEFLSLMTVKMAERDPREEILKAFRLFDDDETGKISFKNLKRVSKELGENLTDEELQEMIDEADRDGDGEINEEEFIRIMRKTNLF
Chain of TgSFI1 R16 peptide R16 (Toxoplasma gondii) (S8F258 whole entry): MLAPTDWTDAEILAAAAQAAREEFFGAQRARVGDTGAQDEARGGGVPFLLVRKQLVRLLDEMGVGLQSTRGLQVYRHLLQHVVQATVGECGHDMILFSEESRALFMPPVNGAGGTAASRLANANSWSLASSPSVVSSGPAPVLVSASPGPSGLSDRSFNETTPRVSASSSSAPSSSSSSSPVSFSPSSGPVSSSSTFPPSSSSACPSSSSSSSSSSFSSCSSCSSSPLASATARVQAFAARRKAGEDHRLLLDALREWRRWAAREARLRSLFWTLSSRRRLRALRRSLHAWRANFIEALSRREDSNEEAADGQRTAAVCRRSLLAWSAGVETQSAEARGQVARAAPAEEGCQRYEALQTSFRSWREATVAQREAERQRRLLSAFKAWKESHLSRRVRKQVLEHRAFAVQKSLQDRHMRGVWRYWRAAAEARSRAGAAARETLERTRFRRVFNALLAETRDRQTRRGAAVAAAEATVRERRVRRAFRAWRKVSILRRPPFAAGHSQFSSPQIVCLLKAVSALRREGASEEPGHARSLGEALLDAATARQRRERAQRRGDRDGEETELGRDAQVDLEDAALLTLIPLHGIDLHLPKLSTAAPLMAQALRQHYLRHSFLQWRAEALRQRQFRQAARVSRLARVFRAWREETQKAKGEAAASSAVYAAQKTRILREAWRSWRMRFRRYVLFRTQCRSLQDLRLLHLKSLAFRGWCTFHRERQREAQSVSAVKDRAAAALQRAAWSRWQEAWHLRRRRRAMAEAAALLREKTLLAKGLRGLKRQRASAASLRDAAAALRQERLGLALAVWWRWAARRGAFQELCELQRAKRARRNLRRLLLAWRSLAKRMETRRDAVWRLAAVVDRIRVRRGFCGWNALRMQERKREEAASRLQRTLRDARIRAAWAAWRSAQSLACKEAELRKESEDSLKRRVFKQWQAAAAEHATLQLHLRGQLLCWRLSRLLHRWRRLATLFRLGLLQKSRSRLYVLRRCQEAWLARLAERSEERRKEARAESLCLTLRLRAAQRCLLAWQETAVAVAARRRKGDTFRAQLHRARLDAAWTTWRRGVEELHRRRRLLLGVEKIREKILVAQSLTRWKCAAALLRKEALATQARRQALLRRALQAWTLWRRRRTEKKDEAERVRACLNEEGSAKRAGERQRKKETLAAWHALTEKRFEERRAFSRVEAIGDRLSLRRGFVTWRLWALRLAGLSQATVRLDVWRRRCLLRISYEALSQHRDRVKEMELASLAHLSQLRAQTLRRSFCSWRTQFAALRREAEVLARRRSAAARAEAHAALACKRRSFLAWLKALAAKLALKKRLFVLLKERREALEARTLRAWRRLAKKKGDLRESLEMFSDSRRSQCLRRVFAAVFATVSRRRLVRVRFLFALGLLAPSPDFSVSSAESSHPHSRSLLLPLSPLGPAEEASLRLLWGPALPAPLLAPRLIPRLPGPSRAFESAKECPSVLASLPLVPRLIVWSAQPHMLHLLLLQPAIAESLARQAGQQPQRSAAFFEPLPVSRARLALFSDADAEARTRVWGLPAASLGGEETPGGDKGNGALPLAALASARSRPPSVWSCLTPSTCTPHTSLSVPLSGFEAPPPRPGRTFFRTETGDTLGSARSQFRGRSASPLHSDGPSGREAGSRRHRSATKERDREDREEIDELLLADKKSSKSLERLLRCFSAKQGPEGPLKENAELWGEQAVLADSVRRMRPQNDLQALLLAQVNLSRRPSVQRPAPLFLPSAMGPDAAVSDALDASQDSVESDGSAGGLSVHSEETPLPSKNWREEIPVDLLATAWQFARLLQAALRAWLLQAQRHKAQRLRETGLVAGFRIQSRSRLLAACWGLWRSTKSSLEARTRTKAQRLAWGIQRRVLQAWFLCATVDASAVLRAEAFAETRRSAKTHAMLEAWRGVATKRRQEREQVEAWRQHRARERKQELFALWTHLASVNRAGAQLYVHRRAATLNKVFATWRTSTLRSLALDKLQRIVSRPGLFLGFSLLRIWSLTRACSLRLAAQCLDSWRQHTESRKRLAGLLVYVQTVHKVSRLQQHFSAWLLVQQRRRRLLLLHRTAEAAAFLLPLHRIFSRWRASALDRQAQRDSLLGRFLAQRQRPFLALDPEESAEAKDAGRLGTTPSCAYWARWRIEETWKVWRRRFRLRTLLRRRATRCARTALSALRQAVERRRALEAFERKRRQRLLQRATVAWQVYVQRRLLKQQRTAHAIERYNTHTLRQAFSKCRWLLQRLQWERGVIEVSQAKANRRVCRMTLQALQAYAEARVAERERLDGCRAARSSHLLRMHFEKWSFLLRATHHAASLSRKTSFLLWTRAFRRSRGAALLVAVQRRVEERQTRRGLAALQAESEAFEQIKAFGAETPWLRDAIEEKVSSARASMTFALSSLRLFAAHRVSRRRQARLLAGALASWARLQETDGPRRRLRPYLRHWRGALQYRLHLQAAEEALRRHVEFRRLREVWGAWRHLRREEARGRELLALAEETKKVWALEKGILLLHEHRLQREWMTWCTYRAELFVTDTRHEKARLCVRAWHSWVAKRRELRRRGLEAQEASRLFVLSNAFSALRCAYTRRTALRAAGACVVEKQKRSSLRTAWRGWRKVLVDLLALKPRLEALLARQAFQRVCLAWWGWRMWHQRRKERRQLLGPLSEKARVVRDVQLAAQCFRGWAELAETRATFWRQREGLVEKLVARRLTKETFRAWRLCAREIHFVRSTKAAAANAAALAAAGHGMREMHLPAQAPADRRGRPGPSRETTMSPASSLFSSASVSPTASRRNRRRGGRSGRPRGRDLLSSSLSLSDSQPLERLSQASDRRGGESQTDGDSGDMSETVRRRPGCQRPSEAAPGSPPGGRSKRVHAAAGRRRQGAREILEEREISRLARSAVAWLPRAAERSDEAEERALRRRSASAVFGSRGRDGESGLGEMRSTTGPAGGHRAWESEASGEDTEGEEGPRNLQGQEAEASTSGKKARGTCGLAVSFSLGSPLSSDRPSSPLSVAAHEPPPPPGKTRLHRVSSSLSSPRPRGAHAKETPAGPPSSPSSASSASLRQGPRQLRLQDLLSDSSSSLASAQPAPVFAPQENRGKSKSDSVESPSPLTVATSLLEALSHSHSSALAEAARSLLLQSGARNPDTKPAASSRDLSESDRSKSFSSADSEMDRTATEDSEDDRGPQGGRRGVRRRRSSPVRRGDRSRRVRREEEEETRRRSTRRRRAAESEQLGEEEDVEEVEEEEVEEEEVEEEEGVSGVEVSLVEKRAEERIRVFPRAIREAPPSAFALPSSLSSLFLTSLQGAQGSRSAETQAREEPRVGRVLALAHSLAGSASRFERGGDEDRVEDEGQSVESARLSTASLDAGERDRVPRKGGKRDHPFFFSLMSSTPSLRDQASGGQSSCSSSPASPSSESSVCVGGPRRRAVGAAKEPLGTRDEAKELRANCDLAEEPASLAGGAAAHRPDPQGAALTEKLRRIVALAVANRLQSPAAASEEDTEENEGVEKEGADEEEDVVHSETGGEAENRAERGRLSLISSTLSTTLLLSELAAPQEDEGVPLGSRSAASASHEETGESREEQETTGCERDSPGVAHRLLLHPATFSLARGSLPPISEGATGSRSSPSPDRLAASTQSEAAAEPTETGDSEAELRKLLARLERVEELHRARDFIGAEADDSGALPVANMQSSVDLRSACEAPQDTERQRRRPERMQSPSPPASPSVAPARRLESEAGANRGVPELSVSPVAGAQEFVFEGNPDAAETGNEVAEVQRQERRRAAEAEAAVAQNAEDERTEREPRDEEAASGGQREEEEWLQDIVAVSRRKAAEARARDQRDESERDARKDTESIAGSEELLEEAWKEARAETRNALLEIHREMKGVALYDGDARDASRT
Chain of TgCEN1 (A0A125YHX7 whole entry): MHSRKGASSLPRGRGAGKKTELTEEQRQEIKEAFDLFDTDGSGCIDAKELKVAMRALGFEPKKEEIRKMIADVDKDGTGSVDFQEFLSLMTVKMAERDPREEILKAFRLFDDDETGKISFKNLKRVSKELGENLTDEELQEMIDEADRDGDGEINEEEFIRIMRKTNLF

LQRTLRDARIRAAWAAWR [R12] gave a Kd [1, 5] of 0.4 ± 0.1 µM, a Kd [1, 6] of 69.9 ± 7 µM and a Kd [2, 7] of 0.5 ± 0.1 µM. For the same substance, the Kd [2, 8] was 29.8 ± 3.4 µM.

Work on LATQARRQALLRRALQAWTL [R16] yielded a Kd ([3]; 25 °C, 50 mM Tris-HCl, 150 mM KCl pH 7.5, 5 mM CaCl2, mean ± SE of triplicate, dash = no binding observed) of 0.4 ± 0.1 µM, a Kd [1, 5] of 0.006 ± 0.001 µM and a Kd [1, 6] of 9.1 ± 0.8 µM. For the same substance, the Kd [2, 9] was 0.009 ± 0.001 µM, the Kd [2, 10] was 0.5 ± 0.1 µM and the Kd [2, 8] was 3.4 ± 0.3 µM.

VVEKQKRSSLRTAWRGWR [R31] showed a Kd [1, 5] of 1.9 ± 0.1 µM, a Kd [2, 7] of 2.9 ± 0.1 µM and a Kd [2, 11] of about 1 µM.

For AEATVRERRVRRAFRAWR [R5], the Kd [1, 5] was 0.9 ± 0.1 µM, the Kd [1, 6] was 47.8 ± 4.9 µM and the Kd [2, 7] was 0.5 ± 0.1 µM. It also gave a Kd [2, 8] of 36.9 ± 6.6 µM.

For RVEAIGDRLSLRRGFVTWRL [R17], the Kd [1, 5] was 2.7 ± 0.1 µM and the Kd [2, 7] was 0.8 ± 0.2 µM.

For TgCEN1 (from UniProt A0A125YHX7), the Kd [4] was 0.009 µM.

For AEAAAFLLPLHRIFSRWR [R24], the Kd [1, 5] was 2.6 ± 0.3 µM, the Kd [2, 7] was 3.4 ± 0.6 µM and the Kd [2, 11] was about 1 µM.

For LQRAKRARRNLRRLLLAWRS [R10], the “n (stoichiometry of binding)” value ([3]; 25 °C, 50 mM Tris-HCl, 150 mM KCl pH 7.5, 5 mM CaCl2, mean ± SE of triplicate) was 0.7 ± 0.1, the ΔH ([3]; 25 °C, pH 7.5, 5 mM CaCl2, mean ± SE of triplicate) was -12.6 ± 0.9 kcal/mol and the TΔS ([3]; T 298 K, pH 7.5, 5 mM CaCl2, mean ± SE of triplicate) was -4.4 ± 1.0 kcal/mol. For the same substance, the “n (stoichiometry of binding)” value [1, 5] was 0.7 ± 0.1, the “n (stoichiometry of binding)” value ([1]; 150 mM KCl pH 7.5, 5 mM EGTA, mean ± SE of triplicate) was 0.7 ± 0.1 and the ΔH [1, 12] was -15.8 ± 0.1 kcal/mol. It also gave a ΔH [1, 13] of -19.3 ± 0.1 kcal/mol, a TΔS [1, 12] of -5.5 ± 0.5 kcal/mol and a TΔS [1, 13] of -11.5 ± 0.7 kcal/mol. The “n (stoichiometry of binding), n1” value [2, 9] was “n1 = 0.7 ± 0.1”, the “n (stoichiometry of binding), n2” value [2, 10] was “n2 = 0.9 ± 0.1” and the “n (stoichiometry of binding)” value ([2]; 25 °C, 50 mM Tris-HCl, 150 mM KCl pH 7.5, 5 mM EGTA, mean ± SE of triplicate, SEM) was 0.8 ± 0.1. It also gave a ΔH ([2]; 25 °C, pH 7.5, 5 mM CaCl2, first site (n1), mean ± SE of triplicate, SEM) of -19.1 ± 0.4 kcal/mol, a ΔH ([2]; 25 °C, pH 7.5, 5 mM CaCl2, second site (n2), mean ± SE of triplicate, SEM) of -12.1 ± 0.3 kcal/mol and a ΔH ([2]; 25 °C, pH 7.5, 5 mM EGTA, mean ± SE of triplicate, SEM) of -24.7 ± 0.4 kcal/mol. The TΔS ([2]; pH 7.5, 5 mM CaCl2, first site (n1), mean ± SE of triplicate, SEM) was -6.3 ± 0.4 kcal/mol, the TΔS ([2]; pH 7.5, 5 mM CaCl2, second site (n2), mean ± SE of triplicate, SEM) was -4.4 ± 0.3 kcal/mol and the TΔS ([2]; pH 7.5, 5 mM EGTA, mean ± SE of triplicate, SEM) was -16.4 ± 0.4 kcal/mol.

Reference: article PMC9406199, “Conformational Plasticity of Centrin 1 from Toxoplasma gondii in Binding to the Centrosomal Protein SFI1” (Biomolecules, 2022)
